The values that follow come from US9079915B2, “Thienyl- and furanyl-isoquinolinones and methods for using them” (priority 2008, dated 2015).

What all share (format): in vivo
Test [1] has as its system Wistar rats, pMCAO. In words: Less severe permanent MCAO (pMCAO, distal MCA occlusion) model. To be noted: pMCAO rat. Here is the method:
Adult male Wistar rats (Charles River, Wilmington, Mass.) 290-310 g were used in all studies. Animal procedures were approved by the Institutional Animal Care and Use Committee and conducted in accordance with the guidelines of the National Institutes of Health. Craniotomy was performed under isoflurane anesthesia. This was followed by electrocauterization of the distal portion of the MCA and a 90 minute ligation of both carotid arteries to limit collateral circulation during the initial stage of stroke, as described by Chen, et al. (Chen et al., 1986). Compound or vehicle, were administered as infusion starting at 4 hours post-induction of stroke and lasting 24 hours. Animals were maintained for long-term functional recovery assessment. Sensorimotor and reflex deficits were evaluated at 3-day intervals for 90 days according to (Bederson et al., 1986; De Ryck et al., 1989). Each trial included: postural test, two visual and two tactile forelimb placement tests and a hind limb placement test. Performance at each test was scored from 0 (no deficit) to 2 (severe deficit) for a maximum combined score of 12. Neurological scoring was performed in a blinded fashion. Values are expressed as means±SEM for the indicated number of animals or number of in vitro experiments. The statistical significance of differences between means was calculated by one-way ANOVA with post-hoc Fisher test or Dunnett's comparison to control or with Student's t-test analysis, as appropriate. Linear mix model was used to assess differences between treatment groups during 3-week neurological function recovery testing post-pMCAO. Statistical significance was assumed at p<0.05. A further efficacy study was conducted and employed a less severe permanent MCAO (pMCAO) model. This model, which utilized an occlusion of the distal portion of the middle cerebral artery, produced a much smaller injury contained within the sensorimotor cortex of the animal. The injury sustained in this model was less extensive but still involves the motor cortex and the rats can be assessed over the long-term (3 weeks to 3 months post-ischemia) for neurological function. In a first study with this model, rats were administered an IV bolus dose of 1, 3 or 10 mg/kg initiated at 4 hours post-ischemia and followed by 2 subsequent and equivalent doses at 7 and 10 hours. In a second study, rats were given a single IV bolus followed by a 24 hr IV infusion. Neurological function was tested every 2-3 days for 3 weeks post-MCAO.

In test [2] the test system is Wistar rats, 90 min tMCAO. In words: Transient middle cerebral artery occlusion (tMCAO) model. Particulars: tMCAO rat. Here is the method: (§1) Adult male Wistar rats (Charles River, Wilmington, Mass.) 290-310 g were used in all studies. Animal procedures were approved by the Institutional Animal Care and Use Committee and conducted in accordance with the guidelines of the National Institutes of Health.
(§2) Rats were anesthetized with 3% isoflurane in a mixture of 70% nitrous oxide and 30% oxygen through a nose cone. Core body temperature was maintained at 37° C. throughout the surgery using a heating lamp. tMCAO was induced for 90 min using the intraluminal suture method (Longa et al., Reversible middle cerebral artery occlusion without craniectomy in rats. Stroke 20:84-91, 1989). Briefly, an 18 mm length of 4-0 monofilament nylon suture coated with poly-L-lysine (Belayev et al., 1996) with a flame-rounded tip was inserted into the external carotid artery and advanced into the internal carotid to occlude the origin of the MCA Ninety minutes later rats were re-anesthetized, the suture withdrawn and the incision closed. Drug (test compound) or vehicle, were administered into the tail vein as a 3 IV bolus doses 3 hours apart in a volume of 2 ml/kg starting at 4 hours post-induction of stroke at various time intervals after the induction of stroke. Animals were tested for motor deficits using a scoring system described by (Bederson et al., 1986). A Bederson score of 5 (maximum) at 90 minutes post-induction of tMCAO was a criterion for inclusion in the trial. Motor deficits and body weight were monitored at 24 and 48 hours post-tMCAO. Neurological deficits were assessed by blinded operators. Rats were sacrificed at 48 hours post-tMCAO. Sham-operated controls were subjected to identical surgical procedures but without advancement of the monofilament into the MCA branching point. The same model was also used, but in addition to occlusion of middle cerebral arteries, both carotid arteries were occluded (CCAO) for the same time 90 minutes. This was Severe Transient MCAO.
After sacrifice, brains were extracted and 2 mm coronal sections were cut starting at 4 mm from the frontal pole using a rat brain matrix (Stoeling, Wood Dale, Ill.). Sections were stained by immersion in a 2% solution of 2,3,5-triphenyl tetrazolium chloride at 37° C. for 10 minutes and then in 10% neutral formalin for preservation. Digitized images of sections were collected using the MCID image analysis system (Imaging Research, Inc. Ontario, Canada), and the area of infarct determined for each slice. Total infarct volume was calculated by multiplying a sum of areas by the distance between them in mm.
Values are expressed as means±SEM for the indicated number of animals or number of in vitro experiments. The statistical significance of differences between means was calculated by one-way ANOVA with post-hoc Fisher test or Dunnett's comparison to control or with Student's t-test analysis, as appropriate. Linear mix model was used to assess differences between treatment groups during 3-week neurological function recovery testing post-pMCAO. Statistical significance was assumed at p<0.05.
The first study was conducted using a transient middle cerebral artery occlusion (tMCAO) model. Rats were subjected to 90 minutes tMCAO and compound (2-dimethylaminomethyl-9-hydroxythieno[2,3-c]isoquinolin-5(4H)-one) was administered using 3 bolus injections at 4, 7 and 10 hours post-ischemia and an intraperitoneal (IP) route of administration. The three doses evaluated were 0.1, 1 and 10 mg/kg. Dosing was initiated at 4 hours post-MCAO because it is a clinically relevant therapeutic time window to treatment. Infarct volumes and neurological testing were carried out at 48 hours post-ischemia. This model produces an extensive unilateral lesion that involves the motor cortex and striatum. It is used to assess acute neuroprotection and neurological function in a reperfusion model of stroke. […]

In test [3] the test system is Wistar rats, severe permanent MCAO. In words: Severe permanent MCAO model (intraluminal suture not removed). To be noted: severe permanent MCAO rat, 3×1 mg/kg IP from 30 minutes post-ischemia, 24 hours.
For test [4], the system named is Wistar rats, severe tMCAO. In words: Severe tMCAO model (MCA and both carotid arteries temporarily occluded). Particulars: severe tMCAO rat, 48 hours. Here is the method:
as §1
as §2, with “Sham-operated controls were subjected to identical surgical procedures but without advancement of the monofilament into the MCA branching point. The same model was also used, but in addition to occlusion of middle cerebral arteries, both carotid arteries were occluded (CCAO) for the same time 90 minutes. This was Severe Transient MCAO.” left out
After sacrifice, brains were extracted and 2 mm coronal sections were cut starting at 4 mm from the frontal pole using a rat brain matrix (Stoeling, Wood Dale, Ill.). […] Digitized images of sections were collected using the MCID image analysis system (Imaging Research, Inc. Ontario, Canada), and the area of infarct determined for each slice. Total infarct volume was calculated by multiplying a sum of areas by the distance between them in mm.
Values are expressed as means±SEM for the indicated number of animals or number of in vitro experiments. The statistical significance of differences between means was calculated by one-way ANOVA with post-hoc Fisher test or Dunnett's comparison to control or with Student's t-test analysis, as appropriate. […]
In a third assay, a severe tMCAO model was used (where both MCAO and carotid arteries were temporarily occluded) to obtain an injury. […] Doses of 1 or 10 mg/kg of 2-dimethylaminomethyl-9-hydroxythieno[2,3-c]isoquinolin-5(4H)-one were given at 4, 7 and 10 hours and animals were evaluated for infarct size, weight loss and neurological score at 48 hours post-MCAO.

Setting [5] is: 11.7 mg/kg IV bolus then 0.9 mg/hr infusion for 24 hours.

For the compound `CN(C)Cc1cc2c([nH]c(=O)c3cccc(O)c32)s1` [2-dimethylaminomethyl-9-hydroxythieno[2,3-c]isoquinolin-5(4H)-one], in test [1] (3.5 mg/kg IV bolus plus 2.5 mg/hr IV infusion for 24 hours), the “time for which neurological recovery was maintained following ischemia” value is “at least 3 months”. The neurological deficits entry was “significantly reduced neurological deficits” in test [1] (3.5 mg/kg IV bolus plus 2.5 mg/hr IV infusion for 24 hours, 39 days post-ischemia); “significantly reduced neurological deficits” in test [2] (1 mg/kg IP ×3, 48 hr post-MCAO); “significant reduction in neurological deficits” in test [2] (11.7 mg/kg IV bolus then 0.9 mg/hr infusion for 24 hours from 4 hours post-tMCAO, 48 hours); “reduction of neurological deficits” in test [4] (3 times 1 or 10 mg/kg IV bolus). Moreover, the “neurological function, 10 mg/kg dose” value in test [1] (multiple IV bolus 10 mg/kg, 21 days post-ischemia) was “approached efficacy”. The neurological function result in test [1] (multiple IV bolus 1, 3 or 10 mg/kg at 4, 7 and 10 hours, 21 days post-ischemia) was “no significant improvement in neurological function”. Further, the “effect on neurological deficits, weight loss and infarct volume” value in test [2] (3.9 mg/kg IV bolus then 0.3 mg/hr infusion for 24 hours (lower dose)) is “No effect was seen”. Moreover, the ischemic-induced weight loss result in test [2] (setting [5]) was “significant reduction in ischemic-induced weight loss”. For the same compound, the “reduction in infarct volume (small but insignificant)” value in test [2] (setting [5]) was 10%. The “reduction of infarct volume vs vehicle” value in test [2] (3×0.1 mg/kg IP at 4, 7 and 10 hours post-ischemia, 48 hours) turned out to be 20%; in test [2] (3×1 mg/kg IP at 4, 7 and 10 hours post-ischemia, 48 hours) it was 55%; in test [2] (3×10 mg/kg IP at 4, 7 and 10 hours post-ischemia, 48 hours), 66%. Also, the “infarct volume smaller than vehicle” value stood at 42% in test [3]; 22% in test [4] (3 times 1 mg/kg IV bolus at 4, 7 and 10 hours); 19% in test [4] (3 times 10 mg/kg IV bolus at 4, 7 and 10 hours). For the same compound, in test [4] (3 times 1 or 10 mg/kg IV bolus), the ischemia-induced weight loss result is “reduction of ischemia-induced weight loss”.
